Literature values as cited in paper PMC5669518 (Biochemistry and Biophysics Reports, 2015).

Tested on: NEU2
Conditions: active form of oseltamivir; ref [16], [17]

## CCOC(=O)C1=C[C@@H](OC(CC)CC)[C@H](NC(C)=O)[C@@H](N)C1 [oseltamivir]
  Inhibitory effect on NEU2: does not exhibit the inhibitory effect
